By IC50 is commonly meant the midpoint of a concentration-inhibition curve. A low value points to higher potency.

Where a chain is given by its changes, count along the chain named.

Consider 20 molecules from patent publication US20260217660A1, “INHIBITORS OF ACTIVIN RECEPTOR TYPE I (ACVRI) AND ACTIVIN RECEPTOR LIKE TYPE I (ACVRLI), AND METHODS USING SAME” (Baylor College of Medicine, priority 2023, published 2026).

The target in series [1] is T1, ACVR1 (Homo sapiens, UniProt Q04771).
T1 construct: purchased ThermoFisher
T1 sequence (Q04771 21-509): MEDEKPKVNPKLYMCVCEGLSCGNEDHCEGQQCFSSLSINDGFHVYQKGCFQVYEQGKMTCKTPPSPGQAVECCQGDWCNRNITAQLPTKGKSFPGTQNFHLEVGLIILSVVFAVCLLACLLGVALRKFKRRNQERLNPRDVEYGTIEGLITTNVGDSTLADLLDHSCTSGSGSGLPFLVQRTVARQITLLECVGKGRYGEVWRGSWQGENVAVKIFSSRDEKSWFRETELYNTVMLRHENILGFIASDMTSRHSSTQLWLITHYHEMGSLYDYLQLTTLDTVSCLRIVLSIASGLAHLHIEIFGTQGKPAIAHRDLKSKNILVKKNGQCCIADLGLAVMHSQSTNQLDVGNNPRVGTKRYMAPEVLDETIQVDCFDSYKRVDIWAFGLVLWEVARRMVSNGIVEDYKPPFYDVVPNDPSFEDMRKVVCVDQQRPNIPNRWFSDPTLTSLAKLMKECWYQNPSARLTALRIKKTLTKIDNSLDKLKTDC
In words: ThermoFisher (Lantha) kinase assay, inhibition of ACVR1. The class given is biochemical. To be noted: ThermoFisher Assay, in vitro.

Series [2] addresses T2, ACVRL1 (Homo sapiens, UniProt P37023).
T2 construct: purchased ThermoFisher
Briefly: ThermoFisher (Lantha) kinase assay, inhibition of ACVRL1. It counts as biochemical. Particulars: in vitro, NA = not active at 1 μM.

Series [3] addresses T3, ACVR1^WT (Homo sapiens, UniProt Q04771).
T3 sequence (Q04771 21-509): T1 sequence (Q04771 21-509)
Briefly: Promega NanoBRET live-cell target engagement, ACVR1. The class given is cell-based. Particulars: in cellulo; NI = No inhibition at 40 μM. From the text: (§1) The Promega NanoBRET target engagement system involves cell-based competitive displacement of a fluorescent NanoBRET tracer bound reversibly to a NanoLuc fusion protein. Test compounds displace the tracer dependent on their affinity for the target and reduce […] the NanoBRET signal. […]
On the technique in general: In BRET a luciferase serves as donor, and the signal depends on an acceptor being close.

In series [4] the target is T4, ACVR1^R206H (Homo sapiens, UniProt Q04771, R206H).
T4 sequence (Q04771 21-509 R206H): T1 sequence (Q04771 21-509) with R186H
Briefly: Promega NanoBRET live-cell target engagement, ACVR1 (R206H). The class given is cell-based. To be noted: in cellulo; NI = No inhibition at 40 μM.
Source text: as §1

Series [5] is described as follows: Metabolic stability in mouse liver microsomes. The class given is in vitro ADME. Particulars: some cells add hours in brackets. The source says:
(§2) Exemplary compounds of the present disclosure have been evaluated for metabolic stability in mouse and human liver microsomes.
In general terms: Liver microsomes are vesicles of endoplasmic reticulum, rich in cytochrome P450 enzymes.

Series [6] in a line: Metabolic stability in human liver microsomes. The class given is in vitro ADME. Particulars: some cells add hours in brackets.
Source text: as §2

T2 sequence (P37023 22-503): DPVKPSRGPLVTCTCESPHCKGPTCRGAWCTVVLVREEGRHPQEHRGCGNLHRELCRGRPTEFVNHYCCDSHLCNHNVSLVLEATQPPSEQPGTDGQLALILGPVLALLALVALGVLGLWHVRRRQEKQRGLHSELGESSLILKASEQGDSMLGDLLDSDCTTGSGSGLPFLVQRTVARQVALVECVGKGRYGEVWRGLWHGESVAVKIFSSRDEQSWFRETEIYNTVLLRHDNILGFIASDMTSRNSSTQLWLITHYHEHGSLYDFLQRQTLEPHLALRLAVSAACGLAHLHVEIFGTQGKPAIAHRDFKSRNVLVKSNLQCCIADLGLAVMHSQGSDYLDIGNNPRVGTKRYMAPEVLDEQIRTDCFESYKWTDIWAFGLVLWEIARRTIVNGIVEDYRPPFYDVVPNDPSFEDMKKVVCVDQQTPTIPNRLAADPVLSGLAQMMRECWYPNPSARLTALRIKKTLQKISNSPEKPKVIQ

For the molecule `CNC(=O)[C@H]1C[C@H](n2c(-c3cc(F)cc(OC)c3)nc3ccc(C(=O)NCCCN(C)C)cc32)C1` [CDD-2682, N-(3-(dimethylamino)propyl)-2-(3-fluoro-5-methoxyphenyl)-1-((1r,3r)-3-(methylcarbamoyl)cyclobutyl)-1H-benzo[d]imidazole-6-carboxamide], the IC50 in series [1] was determined as 87.1 nM; in series [2], 407 nM. As to `CNC(=O)[C@H]1CC[C@H](n2c(-c3cc(OC)c(OC)c(OC)c3)nc3ccc(C(=O)NCCCN4CCN(c5ccccc5)CC4)cc32)C1` [CDD-2206, 1-((1S,3S)-3-(methylcarbamoyl)cyclopentyl)-N-(3-(4-phenylpiperazin-1-yl)propyl)-2-(3,4,5-trimethoxyphenyl)-1H-benzo[d]imidazole-6-carboxamide], the IC50 amounted to 5.3 nM in series [1] and 26.9 nM in series [2]. The matching figures for `CNC(=O)[C@@H]1CC[C@@H](n2c(-c3cc(OC)c(OC)c(OC)c3)nc3ccc(C(=O)NCCCN4CCN(c5ccccc5)CC4)cc32)C1` [CDD-2622, 1-((1R,3R)-3-(methylcarbamoyl)cyclopentyl)-N-(3-(4-phenylpiperazin-1-yl)propyl)-2-(3,4,5-trimethoxyphenyl)-1H-benzo[d]imidazole-6-carboxamide]: 5.7 nM and 11.5 nM.

Turning to `COc1cc(-c2nc3ccc(C(=O)NCC4(O)CCN(Cc5ccccc5)CC4)cc3n2C2CCC2)cc(OC)c1OC` [CDD-2795, N-((1-benzyl-4-hydroxypiperidin-4-yl)methyl)-1-cyclobutyl-2-(3,4,5-trimethoxyphenyl)-1H-benzo[d]imidazole-6-carboxamide], the IC50 in series [3] worked out at 387 nM; in series [4], 459 nM. The matching figures for `COc1cc(OC)cc(-c2nc3ccc(C(=O)NCCCN4CCN(c5cccc(C)c5C)CC4)cc3n2C2CCC2)c1` [CDD-2469, 1-cyclobutyl-2-(3,5-dimethoxyphenyl)-N-(3-(4-(2,3-dimethylphenyl)piperazin-1-yl)propyl)-1H-benzo[d]imidazole-6-carboxamide]: 4720 nM and 4450 nM. Take `CNC(=O)[C@H]1CC[C@H](n2c(-c3cc(I)c(OC)c(OC)c3)nc3ccc(C(=O)NCCCN4CCN(c5ccccc5)CC4)cc32)C1` [CDD-2205, 2-(3-iodo-4,5-dimethoxyphenyl)-1-((1S,3S)-3-(methylcarbamoyl)cyclopentyl)-N-(3-(4-phenylpiperazin-1-yl)propyl)-1H-benzo[d]imidazole-6-carboxamide]: the IC50 in series [1] turned out to be 3.7 nM; in series [2], 14.8 nM.

In turn, `CN(C)CCCNC(=O)c1ccc2nc(-c3cncc4ccccc34)n(C3CCC3)c2c1` [CDD-2623, 1-cyclobutyl-N-(3-(dimethylamino)propyl)-2-(isoquinolin-4-yl)-1H-benzo[d]imidazole-6-carboxamide] came in with an IC50 in series [2] of more than 1000 nM.

As to `CNC(=O)[C@H]1C[C@H](n2c(-c3cc(OC)c(OC)c(OC)c3)nc3ccc(C(=O)NCCCN4CCN(c5ccccc5)CC4)cc32)C1` [CDD-2235, 1-((1r,3r)-3-(methylcarbamoyl)cyclobutyl)-N-(3-(4-phenylpiperazin-1-yl)propyl)-2-(3,4,5-trimethoxyphenyl)-1H-benzo[d]imidazole-6-carboxamide], the “Metabolism MLM” value in series [5] came out at 5.7 min. Also, the “Metabolism HLM” value in series [6] was determined as 9.7 min. On the same counts, the results for `COc1cc(-c2nc3ccc(C(=O)NCCC(=O)N4CCN(c5cccc(C)c5C)CC4)cc3n2C2CCC2)cc(OC)c1OC` [CDD-2467, 1-cyclobutyl-N-(3-(4-(2,3-dimethylphenyl)piperazin-1-yl)-3-oxopropyl)-2-(3,4,5-trimethoxyphenyl)-1H-benzo[d]imidazole-6-carboxamide] are 9.3 min and 13.6 min. In the case of `COc1cc(-c2nc3ccc(C(=O)NCCCN4CCN(c5ccccc5)CC4)cc3[nH]2)cc(OC)c1OC` [CDD-2236, N-(3-(4-phenylpiperazin-1-yl)propyl)-2-(3,4,5-trimethoxyphenyl)-1H-benzo[d]imidazole-6-carboxamide], the IC50 in series [1] turned out to be 65.6 nM; in series [2] it was 534 nM. The matching figures for `CNC(=O)[C@H]1C[C@H](n2c(-c3cc(OC)c(OC)c(OC)c3)nc3ccc(C(=O)NCCCN4CCN(c5cccc(C)c5C)CC4)cc32)C1` [CDD-2341, N-(3-(4-(2,3-dimethylphenyl)piperazin-1-yl)propyl)-1-((1r,3r)-3-(methylcarbamoyl)cyclobutyl)-2-(3,4,5-trimethoxyphenyl)-1H-benzo[d]imidazole-6-carboxamide]: 3.6 nM and 12.3 nM. The matching figures for `CNC(=O)[C@H]1C[C@H](n2c(-c3cccc(OC)c3)nc3ccc(C(=O)NCCCN(C)C)cc32)C1` [CDD-2684, N-(3-(dimethylamino)propyl)-2-(3-methoxyphenyl)-1-((1r,3r)-3-(methylcarbamoyl)cyclobutyl)-1H-benzo[d]imidazole-6-carboxamide]: 84 nM and 197 nM. As for `COc1cc(-c2nc3ccc(C(=O)NCCCN4CCN(C)C(c5ccccc5)C4)cc3n2C2CCC2)cc(OC)c1OC` (stereo not shown) [CDD-2793, 1-cyclobutyl-N-(3-(4-methyl-3-phenylpiperazin-1-yl)propyl)-2-(3,4,5-trimethoxyphenyl)-1H-benzo[d]imidazole-6-carboxamide], the IC50 in series [3] was found to be 2720 nM; in series [4] it was 4280 nM. On the same counts, the results for `COc1cc(-c2nc3ccc(C(=O)NCCN4CCN(C5CCCCC5)CC4)cc3n2C2CCC2)cc(OC)c1OC` [CDD-2794, 1-cyclobutyl-N-(2-(4-cyclohexylpiperazin-1-yl)ethyl)-2-(3,4,5-trimethoxyphenyl)-1H-benzo[d]imidazole-6-carboxamide] are 2090 nM and 3160 nM.

With `CNC(=O)[C@H]1C[C@H](n2c(-c3ccc(OC)c(OC)c3)nc3ccc(C(=O)NCCCN(C)C)cc32)C1` [CDD-2685, 2-(3,4-dimethoxyphenyl)-N-(3-(dimethylamino)propyl)-1-((1r,3r)-3-(methylcarbamoyl)cyclobutyl)-1H-benzo[d]imidazole-6-carboxamide], the IC50 in series [1] worked out at 121 nM; in series [2], 390 nM. For the molecule `CNC(=O)[C@H]1C[C@H](n2c(-c3ccc(F)c(OC)c3)nc3ccc(C(=O)NCCCN(C)C)cc32)C1` [CDD-2683, N-(3-(dimethylamino)propyl)-2-(4-fluoro-3-methoxyphenyl)-1-((1r,3r)-3-(methylcarbamoyl)cyclobutyl)-1H-benzo[d]imidazole-6-carboxamide], the half-inhibitory concentration (IC50) in series [1] was found to be 77.4 nM; in series [2] it was 190 nM. The matching figures for “1-cyclopropyl-N-(3-(4-(2,3-dimethylphenyl)piperazin-1-yl)propyl)-2-(3,4,5-trimethoxyphenyl)-1H-benzo[d]imidazole-6-carboxamide [CDD-2468]”: 135 nM and 4050 nM. In turn, `COc1ccc(-c2cccc(-c3nc4ccc(C(=O)NCCCN(C)C)cc4n3C3CCC3)n2)cc1` [CDD-2620, 1-cyclobutyl-N-(3-(dimethylamino)propyl)-2-(6-(4-methoxyphenyl)pyridin-2-yl)-1H-benzo[d]imidazole-6-carboxamide] gave an IC50 in series [2] of more than 1000 nM.

On to `CNC(=O)[C@H]1CC[C@H](n2c(-c3cc(OC)c(OC)c(OC)c3)nc3ccc(C(=O)NC4COc5ccc(Cl)cc54)cc32)C1` (stereo partly drawn) [CDD-2233, N-(5-chloro-2,3-dihydrobenzofuran-3-yl)-1-((1S,3S)-3-(methylcarbamoyl)cyclopentyl)-2-(3,4,5-trimethoxyphenyl)-1H-benzo[d]imidazole-6-carboxamide], for which the IC50 in series [1] was 19.9 nM; in series [2], 20.1 nM. Consider `CN(C)CCCNC(=O)c1ccc2nc(-c3cccc(-c4ccccc4)c3)n(C3CCC3)c2c1` [CDD-2621, 2-([1,1′-biphenyl]-3-yl)-1-cyclobutyl-N-(3-(dimethylamino)propyl)-1H-benzo[d]imidazole-6-carboxamide], for which, in series [2], the IC50 is more than 1000 nM.
